Holding throughout (format): in vivo
Assay [1] relates to Plutella xylostella (Diamond back moth). As to the kind of experiment: Plutella xylostella artificial diet test, L2 larvae. The conditions noted are these: 120 h, application rate of 200 ppm, mortality and growth inhibition 5 days after infestation. From the text: (§1) The pesticidal/insecticidal properties of the compounds according to embodiments 1 or 2 can be illustrated via the following tests: Spodoptera littoralis (Egyptian cotton leaf worm) • Cotton leaf discs were placed onto agar in 24-well microtiter plates and sprayed with aqueous test solutions prepared from 10'000 ppm DMSO stock solutions. After drying the leaf discs were infested with five L1 larvae. […] Plutella xylostella (Diamond back moth): 24-well microtiter plates with artificial diet were treated with aqueous test solutions prepared from 10'000 ppm DMSO stock solutions by pipetting. After drying, the plates were infested with L2 larvae (10 to 15 per well). The samples were assessed for mortality and growth inhibition in comparison to untreated samples 5 days after infestation. […] Diabrotica balteata, (Corn root worm) • Maize sprouts placed onto an agar layer in 24-well microtiter plates were treated with aqueous test solutions prepared from 10'000 ppm DMSO stock solutions by spraying. After drying, the plates were infested with L2 larvae (6 to 10 per well). […] Thrips tabaci (Onion thrips): Sunflower leaf discs were placed on agar in 24-well microtiter plates and sprayed with aqueous test solutions prepared from 10'000 ppm DMSO stock solutions. After drying the leaf discs were infested with a thrips population of mixed ages. The samples were assessed for mortality 6 days after infestation. […] Tetranychus urticae (Two-spotted spider mite): Bean leaf discs on agar in 24-well microtiter plates were sprayed with aqueous test solutions prepared from 10'000 ppm DMSO stock solutions. After drying the leaf discs were infested with a mite population of mixed ages. The samples were assessed for mortality on mixed population (mobile stages) 8 days after infestation. […] Euschistus heros (Neotropical Brown Stink Bug): • Two weeks old soybean plants were sprayed in a turn table spray chamber with the diluted spray solutions. After drying 2 soybean seeds were added and plants were infested with 10 N2 nymphs of the neotropical brown stink bug Euschistus heros in plastic test boxes. The samples were assessed for mortality in comparison to untreated samples 5 days after infestation. • The following compounds gave at least 80% mortality of Euschistus heros at an application rate of 12.5 ppm: Compounds 3 , 4 , 8 , 39 , 43 , 44 , 46 , 75 , 76 , 77 , 78 , 79 , 80 , 81 , 82 , 88 , 90 , 93 and 95 . Myzus persicae (Green peach aphid): Sunflower leaf discs were placed on agar in a 24-well microtiter plate and sprayed with test solutions at an application rate of 200 ppm. After drying, the leaf discs were infested with an aphid population of mixed ages. After an incubation period of 6 DAT, samples were checked for mortality. The following compounds gave at least 50% mortality of Myzus persicae: Compounds 3 , 4 , 8 , 43 , 44 , 75 , 76 , 77 , 80 , 81 , 90 and 92 . Myzus persicae (Green peach aphid): • Test compounds were applied by pipette into 24 well plates and mixed with Sucrose solution. Application rate: 12.5ppm. The plates were closed with a stretched parafilm. A plastic stencil with 24 holes is placed onto the plate and infested pea seedlings were placed directly on the Parafilm. The infested plate is closed with a gel blotting paper and another plastic stencil and then turned upside down. […]

The subject of assay [2] is Diabrotica balteata, (Corn root worm). As to the kind of experiment: Diabrotica balteata maize sprout spray test, L2 larvae. The conditions noted are these: 96 h, application rate of 200 ppm, 4 days after infestation, L2 larvae, read-out: mortality.
Description: as §1

Assay [3] relates to Thrips tabaci (Onion thrips). As to the kind of experiment: Thrips tabaci sunflower leaf disc spray test. The conditions noted are these: foliar, 144 h, application rate of 200 ppm, mortality 6 days after infestation, mixed ages.
Description: as §1

The test system of assay [4] is Spodoptera littoralis (Egyptian cotton leaf worm). As to the kind of experiment: Spodoptera littoralis cotton leaf disc spray test, L1 larvae. The conditions noted are these: foliar, 72 h, application rate of 200 ppm, 3 days after infestation, L1 larvae, read-out: mortality.
Description: as §1

Assay [5] concerns Tetranychus urticae (Two-spotted spider mite). The assay can be described thus: Tetranychus urticae bean leaf disc spray test. The conditions noted are these: foliar, 192 h, application rate of 200 ppm, mortality on mixed population (mobile stages) 8 days after infestation.
Description: as §1

The term pest or weed control denotes the degree to which the test organism was suppressed or injured, in per cent. Turning to `Cn1nc(C(F)(F)C(F)(F)F)c(C(F)(F)F)c1-c1nc(-c2ccc(Cl)c(C(=O)NC3CC3)c2)no1` [Compound 21, 2-chloro-N-cyclopropyl-5-[5-[2-methyl-5-(1,1,2,2,2-pentafluoroethyl)-4-(trifluoromethyl)pyrazol-3-yl]-1,2,4-oxadiazol-3-yl]benzamide], the pest or weed control at 200 ppm in assay [1] is not below 80%.
In general, mortality refers to the percentage killed. On to `Cn1nc(C(F)(F)C(F)(F)F)c(C(F)(F)F)c1-c1cc(-c2ccc(Cl)c(C(=O)Nc3ccncc3)c2)on1` [Compound 89, 2-chloro-5-[3-[2-methyl-5-(1,1,2,2,2-pentafluoroethyl)-4-(trifluoromethyl)pyrazol-3-yl]isoxazol-5-yl]-N-(4-pyridyl)benzamide], for which the mortality at 200 ppm in assay [2] and in assay [4] was not below 80% in each case. The pest or weed control at 200 ppm in assay [3], in assay [5] and in assay [1] was not below 80% in each case.
As to `C=C(C)CNC(=O)c1cc(-c2cc(-c3c(C(F)(F)F)c(C(F)(F)C(F)(F)F)nn3C)no2)ccc1Cl` [Compound 98, 2-chloro-N-(2-methylallyl)-5-[3-[2-methyl-5-(1,1,2,2,2-pentafluoroethyl)-4-(trifluoromethyl)pyrazol-3-yl]isoxazol-5-yl]benzamide], the mortality at 200 ppm in assay [2] and in assay [4] was not below 80% throughout. In addition, the pest or weed control at 200 ppm in assay [3], in assay [5] and in assay [1] was not below 80% each time.
On to `Cn1nc(C(F)(F)C(F)(F)F)c(C(F)(F)F)c1-c1cc(-c2ccc(Cl)c(C(=O)NCc3ccccc3)c2)on1` [Compound 91, N-benzyl-2-chloro-5-[3-[2-methyl-5-(1,1,2,2,2-pentafluoroethyl)-4-(trifluoromethyl)pyrazol-3-yl]isoxazol-5-yl]benzamide], for which the mortality at 200 ppm in assay [2] was not below 80%. Further, the pest or weed control at 200 ppm in assay [3], in assay [5] and in assay [1] was not below 80% each time.
With `Cn1nc(C(F)(F)C(F)(F)F)c(C(F)(F)F)c1-c1c[nH]c(-c2ccc(Cl)c(C(=O)NC3(C#N)CC3)c2)n1` [Compound 70, 2-chloro-N-(1-cyanocyclopropyl)-5-[4-[2-methyl-5-(1,1,2,2,2-pentafluoroethyl)-4-(trifluoromethyl)pyrazol-3-yl]-1H-imidazol-2-yl]benzamide], the pest or weed control at 200 ppm in assay [1] is not below 80%.
In the case of `Cn1nc(C(F)(F)C(F)(F)F)c(C(F)(F)F)c1-c1cc(-c2ccc(Cl)c(C(N)=O)c2)on1` [Compound 94, 2-chloro-5-[3-[2-methyl-5-(1,1,2,2,2-pentafluoroethyl)-4-(trifluoromethyl)pyrazol-3-yl]isoxazol-5-yl]benzamide], the mortality at 200 ppm in assay [2] and in assay [4] was not below 80% throughout. The pest or weed control at 200 ppm in assay [3], in assay [5] and in assay [1] was not below 80% each time.
Take `Cn1nc(C(F)(F)C(F)(F)F)c(C(F)(F)F)c1-c1ncc(-c2ccc(Cl)c(C(=O)NC3(C#N)CC3)c2)s1` [Compound 48, 2-chloro-N-(1-cyanocyclopropyl)-5-[2-[2-methyl-5-(1,1,2,2,2-pentafluoroethyl)-4-(trifluoromethyl)pyrazol-3-yl]thiazol-5-yl]benzamide]: the mortality at 200 ppm in assay [2] and in assay [4] was not below 80% in each case. In addition, the pest or weed control at 200 ppm in assay [3], in assay [5] and in assay [1] was not below 80% in each case.
Turning to `Cn1nc(C(F)(F)C(F)(F)F)c(C(F)(F)F)c1-c1ncn(-c2ccc(Cl)c(C(=O)NC3CC3)c2)n1` [Compound 35, 2-chloro-N-cyclopropyl-5-[3-[2-methyl-5-(1,1,2,2,2-pentafluoroethyl)-4-(trifluoromethyl)pyrazol-3-yl]-1,2,4-triazol-1-yl]benzamide], the mortality at 200 ppm in assay [4] is not below 80%. In addition, in assay [1], the pest or weed control at 200 ppm was not below 80%.
Consider `Cn1nc(C(F)(F)C(F)(F)F)c(C(F)(F)F)c1-c1cc(-c2ccc(Cl)c(C(=O)NCC=C(Cl)Cl)c2)on1` [Compound 84, 2-chloro-N-(3,3-dichloroallyl)-5-[3-[2-methyl-5-(1,1,2,2,2-pentafluoroethyl)-4-(trifluoromethyl)pyrazol-3-yl]isoxazol-5-yl]benzamide], for which the mortality at 200 ppm in assay [2] was not below 80%. The pest or weed control at 200 ppm in assay [3], in assay [5] and in assay [1] was not below 80% each time.
Turning to `Cn1nc(C(F)(F)C(F)(F)F)c(C(F)(F)F)c1-c1noc(-c2ccc(Cl)c(C(=O)NC3CC3)c2)n1` [Compound 9, 2-chloro-N-cyclopropyl-5-[3-[2-methyl-5-(1,1 ,2,2,2-pentafluoroethyl)-4-(trifluoromethyl)pyrazol-3-yl]-1,2,4-oxadiazol-5-yl]benzamide], the mortality at 200 ppm in assay [2] was not below 80%.
In the case of `Cn1nc(C(F)(F)C(F)(F)F)c(C(F)(F)F)c1-c1cc(-c2ccc(Cl)c(C(=O)Nc3ccc(Cl)cc3)c2)on1` [Compound 85, 2-chloro-N-(4-chlorophenyl)-5-[3-[2-methyl-5-(1,1,2,2,2-pentafluoroethyl)-4-(trifluoromethyl)pyrazol-3-yl]isoxazol-5-yl]benzamide], the pest or weed control at 200 ppm in assay [5] is not below 80%.
Regarding `Cn1nc(C(F)(F)C(F)(F)F)c(C(F)(F)F)c1-c1cc(-c2ccc(Cl)c(C(=O)NCCC(F)(F)F)c2)on1` [Compound 83, 2-chloro-5-[3-[2-methyl-5-(1,1,2,2,2-pentafluoroethyl)-4-(trifluoromethyl)pyrazol-3-yl]isoxazol-5-yl]-N-(3,3,3-trifluoropropyl)benzamide], the mortality at 200 ppm in assay [2] and in assay [4] was not below 80% each time. Besides, the pest or weed control at 200 ppm in assay [3] and in assay [1] was not below 80% in each case.
As to `Cn1nc(C(F)(F)C(F)(F)F)c(C(F)(F)F)c1-c1csc(-c2ccc(Cl)c(C(=O)NC3CC3)c2)n1` [Compound 49, 2-chloro-N-cyclopropyl-5-[4-[2-methyl-5-(1,1 ,2,2,2-pentafluoroethyl)-4-(trifluoromethyl)pyrazol-3-yl]thiazol-2-yl]benzamide], the mortality at 200 ppm in assay [2] and in assay [4] was not below 80% in each case. The pest or weed control at 200 ppm in assay [1] was not below 80%.
Consider `Cn1nc(C(F)(F)C(F)(F)F)c(C(F)(F)F)c1-c1cc(-c2ccc(Cl)c(C(=O)NC3CC3)c2)[nH]n1` [Compound 73, 2-chloro-N-cyclopropyl-5-[3-[2-methyl-5-(1,1,2,2,2-pentafluoroethyl)-4-(trifluoromethyl)pyrazol-3-yl]-1H-pyrazol-5-yl]benzamide], for which the mortality at 200 ppm in assay [4] was not below 80%. The same compound showed a pest or weed control at 200 ppm in assay [5] not below 80%.
As for `Cn1nc(C(F)(F)C(F)(F)F)c(C(F)(F)F)c1-c1ncc(-c2ccc(Cl)c(C(=O)NC3CC3)c2)s1` [Compound 47, 2-chloro-N-cyclopropyl-5-[2-[2-methyl-5-(1,1 ,2,2,2-pentafluoroethyl)-4-(trifluoromethyl)pyrazol-3-yl]thiazol-5-yl]benzamide], the mortality at 200 ppm in assay [2] and in assay [4] was not below 80% throughout. Moreover, the pest or weed control at 200 ppm in assay [1] is not below 80%.
With `Cn1nc(C(F)(F)C(F)(F)F)c(C(F)(F)F)c1-c1nc(-c2ccc(Cl)c(C(=O)NC3CC3)c2)cs1` [Compound 53, 2-chloro-N-cyclopropyl-5-[2-[2-methyl-5-(1,1 ,2,2,2-pentafluoroethyl)-4-(trifluoromethyl)pyrazol-3-yl]thiazol-4-yl]benzamide], the pest or weed control at 200 ppm in assay [1] is not below 80%.

The record behind these values is patent EP3325465B1, “PESTICIDALLY ACTIVE PYRAZOLE DERIVATIVES” (Syngenta Participations AG, priority 2015, dated 2017).
